The numbers were not newly measured in patent publication US12465571B2, “Solid dosage form” (University of Lancashire, priority 2016, dated 2025), which cites them from elsewhere.

For this series the following is noted: high solubility and high permeability.

The structures appear in SMILES notation.

As for `Cn1c(=O)c2[nH]cnc2n(C)c1=O` [theophylline, Theophylline], the “Biopharmaceutical Classification System class” value is “class I”.
